According to US10927139B2, “Chemically cleavable group” (Tagworks Pharmaceuticals B.V., priority 2012, dated 2021):

Experiments:
[1] = Testing the stability of a TCO compound under chemical conditions (HPLC-MS/PDA, GC-MS); format: physicochemical; conditions: for 1 h
Protocol: (§1) The feasibility to use the TCO group as a protective group in chemistry was studied by testing the stability of a range of TCO derivatives as model compounds under various conditions, and following the deprotection upon reaction with a tetrazine derivative under these conditions.
Typical Example for Testing the Stability of a TCO Compound
The TCO stock solution (10 μL 25 mM; 2.5*10^−7 mol) was added to a solution of the specific condition (100 μL). The mixture was stirred at the specific condition for a certain amount of time, and then the fate of the TCO compound was monitored by HPLC-MS/PDA analysis and/or GC-MS analysis, and an estimation of its stability was made.
(§2) A) in acetonitrile with 5 equivalents of pyridine per TCO at 20° C.
(§3) B) in acetonitrile with 5 equivalents of DIPEA per TCO at 20° C.
(§4) C) in acetonitrile with 5 equivalents of piperidine per TCO at 20° C.
(§5) D) in acetonitrile with 5 equivalents of n-butylamine per TCO at 20° C.
(§6) E) in acetonitrile with 5 equivalents of 2-mercaptoethanol per TCO at 20° C.
(§7) F) in tetrahydrofuran with 5 equivalents of triphenylphosphine per TCO at 20° C.
(§8) G) in acetonitrile with 5 equivalents of DCC per TCO at 20° C.
(§9) H) in acetonitrile with 5 equivalents of PyBOP per TCO at 20° C.
(§10) I) in acetonitrile with 1 v % of formic acid at 20° C.
(§11) J) in chloroform at 20° C.
(§12) K) in chloroform with 1 v % of formic acid at 20° C.
(§13) L) in chloroform with 1 v % of trifluoroacetic acid at 20° C.
(§14) M) in chloroform with 10 v % of trifluoroacetic acid at 20° C.
(§15) N) in chloroform with 33 v % of trifluoroacetic acid at 20° C.
(§16) Z) in 25% acetonitrile in water at 20° C.

[2] = Testing the feasibility of the deprotection of TCO compounds upon reaction with tetrazine; conditions: for 1 h
Protocol: as §1
Typical Example for Testing the Feasibility of the Deprotection
The TCO stock solution (10 μL 25 mM in acetonitrile; 2.5*10^−7 mol) was added to a solution of the specific condition (100 μL). A solution of 3,6-dimethyl-1,2,4,5-tetrazine (8, 20 μL 25 mM in acetonitrile; 5.0*10^−7 mol) was added, and the mixture was stirred at the specific condition for a certain amount of time. The reaction was monitored by HPLC-MS/PDA analysis and/or GC-MS analysis, and the percentage of deprotection was estimated.
as §2, §3, §4, §5, §6, §7, §8, §9, §10, §11, §12, §13, §14, §15, §16

[3] = Binding of TCO-protected doxorubicin to beads coated with BSA-tetrazine and doxorubicin release (HPLC); conditions: PBS, 37° C.
Protocol: Tetrazine functionalization of a BSA-coated particle has been described in J. Nucl. Med. 2013, 54, 1989-1995. Briefly, a solution of BSA (bovine serum albumin; 0.7 mg) in PBS was mixed with a 10 mg/mL solution of a bis-pyridyl-tetrazine-NHS derivative in DMF (35 μL, 30 eq. with respect to BSA) and the pH was adjusted to 9.0 with 1 M sodium carbonate buffer. The solution (125 μL total) was incubated at room temperature for 30 min then the unreacted tetrazine was removed from the solution by using a Zeba desalting spin column (7 kDa MW cut-off) pre-washed with PBS. UV measurements confirmed the presence of 12 tetrazine moieties per BSA molecule.
The eluate containing BSA-tetrazine in PBS was added to a 350 μL suspension of polystyrene beads (Polybeads, 0.5 μm, Polysciences) in H2O and the resulting suspension was incubated at +4° C. for 1 h on an end-over-end rotating mixer (10 rpm). After incubation, the suspension of beads coated with BSA-tetrazine was centrifuged at 12,000 rpm for 4 min. The supernatant was carefully removed and the pellet was resuspended in 1.5 mL PBS by using a tip sonicator at low power (Sonics VibraCell, 4×5 sec pulses, 40% of power). The centrifuging-resuspension cycle was repeated 2 times, after which the bead pellet was resuspended in 200 μL PBS and reacted with 7 nmol of TCO-protected doxorubicin (TCO-3-Doxorubin, 1 mM in DMSO).
After 5 min incubation at 37° C. in a thermomixer (350 rpm), the beads were removed by centrifugation and the supernatant was analyzed by HPLC on an Agilent Techologies system (1100 series) equipped with a fluorescence detector with λhex=485 nm and λem=590 nm. The sample was loaded on an Eclipse XDB-C18 column (5 μm, 4.6×150 mm^2, Agilent) which was eluted isocratically with 30% (v/v) acetonitrile in H2O containing 0.1% TFA (v/v) at 1 mL/min. HPLC analysis of the supernatant confirmed that ca. 75% of TCO-doxorubicin was bound to the beads.
The bead pellet was resuspended in 1.5 mL PBS and centrifuged twice to eliminate unbound TCO-doxorubicin. Subsequently, the beads were resuspended in 400 μL PBS and incubated at 37° C. At various times, aliquots of the supernatant were analyzed by HPLC. The chromatographic profiles (FIG. 2) show release of free doxorubicin (Rt=6.2 min) from the beads with time (>45% after 3 h; complete within 24 h).

[4] = A) in acetonitrile with 5 equivalents of pyridine per TCO at 20° C.
[5] = B) in acetonitrile with 5 equivalents of DIPEA per TCO at 20° C.
[6] = G) in acetonitrile with 5 equivalents of DCC per TCO at 20° C.
[7] = I) in acetonitrile with 1 v % of formic acid at 20° C.
[8] = tetrazine 8; A) in acetonitrile with 5 equivalents of pyridine per TCO at 20° C.
[9] = tetrazine 8; B) in acetonitrile with 5 equivalents of DIPEA per TCO at 20° C.
[10] = tetrazine 8; G) in acetonitrile with 5 equivalents of DCC per TCO at 20° C.
[11] = tetrazine 8; I) in acetonitrile with 1 v % of formic acid at 20° C.
[12] = Z) in 25% acetonitrile in water at 20° C.
[13] = tetrazine 8; J) in chloroform at 20° C.
[14] = tetrazine 8; Z) in 25% acetonitrile in water at 20° C.

SMILES	Stability of TCO [1, 4]	Stability of TCO [1, 5]	Stability of TCO [1, 6]	Stability of TCO [1, 7]	Deprotection (%) [2, 8]	Deprotection (%) [2, 9]	Deprotection (%) [2, 10]	Deprotection (%) [2, 11]	Stability of TCO [1, 12]	Deprotection (%) [2, 14]	further results
Cc1cc(C)cc(NC(=O)OC2/C=C/CCCCC2)c1 (stereo not shown) [drawing 128]	stable stable stable stable	stable stable stable stable	stable stable stable stable	stable stable stable stable	55%	39%	91%	97%	–	–	–
O=C(Cc1ccccc1)C(C(=O)OC1/C=C/CCCCC1)c1ccccc1 (stereo not shown)	–	–	–	–	–	–	–	–	stable stable	70%	Stability of TCO ([1]; J) in chloroform at 20° C.): stable stable; Deprotection (%) [2, 13]: 95%
C1=C/C(Oc2ccccc2)CCCCC/1 (stereo not shown) [drawing 122]	–	–	–	–	–	–	–	–	stable	72%	–
Cc1cc(C)cc(NC(=O)OC2/C=C/CCCCC2)c1 (stereo not shown) [drawing 126]	stable stable stable stable	stable stable stable stable	stable stable stable stable	stable stable stable stable	14%	4%	61%	97%	–	–	–
C1=C/C(OCc2ccccc2)CCCCC/1 (stereo not shown)	–	–	–	–	–	–	–	–	stable stable	54%	Stability of TCO ([1]; J) in chloroform at 20° C.): stable stable; Deprotection (%) [2, 13]: 70%
O=C(NCc1cccc2ccccc12)OC1/C=C/CCCCC1 (stereo not shown)	stable stable stable stable stable stable stable stable stable stable stable stable stable stable	stable stable stable stable stable stable stable stable stable stable stable stable stable stable	stable stable stable stable stable stable stable stable stable stable stable stable stable stable	stable stable stable stable stable stable stable stable stable stable stable stable stable stable	87%	58%	74%	93%	stable stable stable stable stable stable stable stable stable stable stable stable stable stable	85%	Stability of TCO ([1]; C) in acetonitrile with 5 equivalents of piperidine per TCO at 20° C.): stable stable stable stable stable stable stable stable stable stable stable stable stable stable; Stability of TCO ([1]; D) in acetonitrile with 5 equivalents of n-butylamine per TCO at 20° C.): stable stable stable stable stable stable stable stable stable stable stable stable stable stable; Stability of TCO ([1]; E) in acetonitrile with 5 equivalents of 2-mercaptoethanol per TCO at 20° C.): stable stable stable stable stable stable stable stable stable stable stable stable stable stable; Stability of TCO ([1]; F) in tetrahydrofuran with 5 equivalents of triphenylphosphine per TCO at 20° C.): stable stable stable stable stable stable stable stable stable stable stable stable stable stable; Stability of TCO ([1]; H) in acetonitrile with 5 equivalents of PyBOP per TCO at 20° C.): stable stable stable stable stable stable stable stable stable stable stable stable stable stable; Stability of TCO ([1]; J) in chloroform at 20° C.): stable stable stable stable stable stable stable stable stable stable stable stable stable stable; Stability of TCO ([1]; K) in chloroform with 1 v % of formic acid at 20° C.): stable stable stable stable stable stable stable stable stable stable stable stable stable stable; Stability of TCO ([1]; L) in chloroform with 1 v % of trifluoroacetic acid at 20° C.): stable stable stable stable stable stable stable stable stable stable stable stable stable stable; Stability of TCO ([1]; M) in chloroform with 10 v % of trifluoroacetic acid at 20° C.): stable stable stable stable stable stable stable stable stable stable stable stable stable stable; Deprotection (%) ([2]; tetrazine 8; C) in acetonitrile with 5 equivalents of piperidine per TCO at 20° C.): 48%; Deprotection (%) ([2]; tetrazine 8; D) in acetonitrile with 5 equivalents of n-butylamine per TCO at 20° C.): 47%; Deprotection (%) ([2]; tetrazine 8; E) in acetonitrile with 5 equivalents of 2-mercaptoethanol per TCO at 20° C.): 67%; Deprotection (%) ([2]; tetrazine 8; F) in tetrahydrofuran with 5 equivalents of triphenylphosphine per TCO at 20° C.): 75%; Deprotection (%) ([2]; tetrazine 8; H) in acetonitrile with 5 equivalents of PyBOP per TCO at 20° C.): 74%; Deprotection (%) [2, 13]: 73%; Deprotection (%) ([2]; tetrazine 8; K) in chloroform with 1 v % of formic acid at 20° C.): 98%; Deprotection (%) ([2]; tetrazine 8; L) in chloroform with 1 v % of trifluoroacetic acid at 20° C.): 99%; Deprotection (%) ([2]; tetrazine 8; M) in chloroform with 10 v % of trifluoroacetic acid at 20° C.): 99%
O=C(Oc1ccc([N+](=O)[O-])cc1)OC1/C=C/CCCCC1 (stereo not shown)	stable	–	stable	stable	64%	90%	72%	97%	stable	70%	Stability of TCO: hydrolysis [1, 5]: 19%
O=C(OC1/C=C/CCCCC1)c1ccc([N+](=O)[O-])cc1 (stereo not shown) [drawing 118]	–	–	–	–	–	–	–	–	stable	66%	–
COc1cccc2c1C(=O)c1c(O)c3c(c(O)c1C2=O)C[C@@](O)(C(=O)CO)C[C@@H]3O[C@H]1C[C@H](N)[C@H](O)[C@H](C)O1 [doxorubicin, reference compound]	–	–	–	–	–	–	–	–	–	–	time to complete release of free doxorubicin from the beads [3]: ≤ 24 h; release of free doxorubicin from the beads ([3]; after 3 h): > 45%
O=C(OC1/C=C/CCCCC1)c1ccc([N+](=O)[O-])cc1 (stereo not shown) [drawing 116]	stable	–	stable	stable	68%	83%	89%	95%	stable	80%	Stability of TCO: hydrolysis [1, 5]: ~2%
C1=C/C(Oc2ccccc2)CCCCC/1 (stereo not shown) [drawing 120]	stable stable stable stable stable	stable stable stable stable stable	stable stable stable stable stable	stable stable stable stable stable	42%	92%	80%	92%	stable stable stable stable stable	87%	–
